This is an account of results in patent US20230167062A1, “AMIDE COMPOUND CONTAINING SUBSTITUTED ACETOPHENONE STRUCTURAL FRAGMENTS AND PREPARATION METHOD AND APPLICATION THEREOF” (SHENYANG SINOCHEM AGROCHEMICALS R&D CO., LTD., priority 2019, published 2023).

Broadly, the melting point is the temperature, or range, at which the solid turns liquid.

One data set relates to wheat powdery mildew. Kind of data set: In vivo protection activity against wheat powdery mildew (live pot determination). The settings on record: for control effects on wheat powdery mildew: dose of 400 ppm. The procedure:
(§1) The test of in vivo protection effect is conducted on various fungal diseases of plants through samples of the compounds of the present invention. The determination results of the fungal activity are shown in the following embodiments.
(§2) The determination method is as follows: the to-be-determined sample of the compound of general formula I obtained above was dissolved with a small amount of solvent (the type of the solvent is, for example, acetone, methanol, DMF, etc., and is selected according to the dissolving ability to the sample; and the volume ratio of the solvent amount to the liquid spray amount is equal to or less than 0.05) by a live pot determination method, and diluted with water containing 0.1% Tween 80 to prepare to-be-determined liquid with required concentration. On a crop sprayer, the to-be-determined liquid was sprayed onto disease host plants (the host plants are standard potted seedlings cultivated in a greenhouse), and the disease was inoculated after 24 hours. According to the characteristics of the disease, the diseased plants that need to be cultivated under temperature control and moisturizing were inoculated and then placed in an artificial climate chamber for cultivation. […] After full onset through control (usually one week), the disease prevention effect of the compound was evaluated.

Another data set has as its system corn rust. Kind of data set: In vivo protection activity against corn rust (live pot determination). The settings on record: for control effects, Corn rust: 400 ppm (Table 4); for control effects on corn rust: dose of 400 ppm. The procedure: as §1, §2
For another data set, the system named is cucumber anthracnose. Kind of data set: In vivo protection activity against cucumber anthracnose (live pot determination). The settings on record: dose of 400 ppm. The procedure: as §1, §2
The test system of another data set is cucumber botrytis. Kind of data set: In vivo protection activity against cucumber botrytis (live pot determination). The note with it: 200 ppm. The procedure:
as §1, §2

The next data set relates to cucumber downy mildew. Kind of data set: In vivo protection activity against cucumber downy mildew (live pot determination). The settings on record: for control effects, Cucumber downy mildew: 400 ppm (Table 2); for control effects on cucumber downy mildew: dose of 400 ppm, spray, inoculated after 24 hours. As to the method:
as §1, §2

The next data set deals with tomato botrytis. Kind of data set: In vivo protection activity against tomato botrytis (live pot determination). The procedure: as §1, §2

For `Cc1cc(OC(C)C)ccc1C(=O)C(C)(C)NC(=O)c1cccnc1C(F)(F)F` [CK1], the “control effects, Wheat powdery mildew” value in the data set with wheat powdery mildew (400 ppm (Table 3)) is listed as 85. Moreover, in the data set with wheat powdery mildew, the “control effects on wheat powdery mildew” value turned out to be 85%. Also, in the data set on corn rust, the “control effects, Corn rust” value is given as 0 and the “control effects on corn rust” value is 0%. Also, in the data set on cucumber anthracnose, the “control effects on cucumber anthracnose” value worked out at 0%. In the data set with cucumber botrytis, the “Control effects on cucumber botrytis (%)” value was found to be 0%. Besides, in the data set with cucumber downy mildew, the “control effects, Cucumber downy mildew” value is 0 and the “control effects on cucumber downy mildew” value came out at 0%.
With `Cc1cc(OC(C)C)ccc1C(=O)C(C)(C)NC(=O)c1cccnc1Cl` [CK2], the “control effects, Wheat powdery mildew” value with wheat powdery mildew (400 ppm (Table 3)) turned out to be 85. Also, the “control effects on wheat powdery mildew” value with wheat powdery mildew is recorded as 85%. In the data set on corn rust, the “control effects, Corn rust” value is on record as 0 and the “control effects on corn rust” value came to 0%. Moreover, the “Control effects on tomato botrytis (%)” value in the data set with tomato botrytis (25 ppm) is reported as 0%. The “Control effects on tomato botrytis (%)” value in the data set on tomato botrytis (100 ppm) stood at 20%. In addition, the “control effects on cucumber anthracnose” value with cucumber anthracnose is 0%. Moreover, in the data set on cucumber botrytis, the “Control effects on cucumber botrytis (%)” value is on record as 0%. In addition, in the data set on cucumber downy mildew, the “control effects, Cucumber downy mildew” value amounted to 0 and the “control effects on cucumber downy mildew” value stood at 0%.
With `Cc1cc(OC(C)C)ccc1C(=O)C(C)(C)NC(=O)c1cn(C)nc1C(F)(F)F` [CK3], the “control effects, Wheat powdery mildew” value in the data set on wheat powdery mildew (400 ppm (Table 3)) is on record as 85. Besides, the “control effects on wheat powdery mildew” value with wheat powdery mildew is listed as 85%. In the data set on corn rust, the “control effects, Corn rust” value was determined as 0 and the “control effects on corn rust” value came to 0%. Moreover, the “Control effects on tomato botrytis (%)” value in the data set on tomato botrytis (25 ppm) is listed as 20%. For the same compound, the “Control effects on tomato botrytis (%)” value with tomato botrytis (100 ppm) is on record as 35%. Also, the “control effects on cucumber anthracnose” value in the data set on cucumber anthracnose is given as 0%. Besides, the “Control effects on cucumber botrytis (%)” value in the data set on cucumber botrytis was 60%. Besides, in the data set on cucumber downy mildew, the “control effects, Cucumber downy mildew” value is reported as 0 and the “control effects on cucumber downy mildew” value was 0%.
Turning to `Cc1cc(OC(C)C)ccc1C(=O)C(C)(C)NC(=O)c1c(C(F)(F)F)nn(C)c1Cl` [CK4], the “control effects, Wheat powdery mildew” value in the data set with wheat powdery mildew (400 ppm (Table 3)) amounted to 75. In the data set on wheat powdery mildew, the “control effects on wheat powdery mildew” value was 75%. For the same compound, in the data set on corn rust, the “control effects, Corn rust” value is 0 and the “control effects on corn rust” value is 0%. Moreover, the “Control effects on tomato botrytis (%)” value with tomato botrytis (25 ppm) stood at 0%. In addition, the “Control effects on tomato botrytis (%)” value in the data set with tomato botrytis (100 ppm) is reported as 0%. The “control effects on cucumber anthracnose” value in the data set with cucumber anthracnose is given as 0%. The “Control effects on cucumber botrytis (%)” value in the data set with cucumber botrytis was determined as 25%. Moreover, in the data set with cucumber downy mildew, the “control effects, Cucumber downy mildew” value is listed as 0 and the “control effects on cucumber downy mildew” value is recorded as 0%.
In turn, `Cc1cc(OC(C)C)ccc1C(=O)C(C)(C)NC(=O)c1cccnc1C(F)F` [Compound I-2] registered a melting point of 96.9 °C. Also, the “control effects, Wheat powdery mildew” value in the data set on wheat powdery mildew (100 ppm (Table 3)) is listed as 100. Moreover, the “control effects, Wheat powdery mildew” value with wheat powdery mildew (400 ppm (Table 3)) came out at 100. In addition, the “control effects, Cucumber downy mildew” value in the data set on cucumber downy mildew is reported as 40.
